Experiments:
[1] = molecular target: purified porcine DPP-4 (Sus scrofa, UniProt P22411); experiment: DPP-4 degradation / in vitro DPP-4 half-life; conditions: 20 μg peptide, 5 mU purified DPP-4, up to 12 h, HPLC
Protocol: Peptide (20 μg) DPP-4 degradation profiles (5 μl purified DPP-4, 5 mU; Sigma-Aldrich, UK) were assessed as described previously.
For calculation of experimental molecular masses, peptide samples (1 µg) were mixed with α-cyano-4-hydroxycinnamic acid (1 µg) and applied to a Voyager-DE BioSpectrometry Workstation and mass-to-charge (m/z) ratio verses peak intensity recorded by MALDI-TOF mass spectrometry. DPP-4 half-life was assessed by incubating peptides (37°C in 50 mmol/L TEA-HCl; pH 7.8) with 5 mU purified porcine DPP-4 for 0, 1, 2, 4, 8 and 12 h. Degradation profiles were obtained using rp-HPLC analysis and HPLC peak area data used to calculate percentage intact peptide remaining at each time point.

[2] = test system: lean control mice; experiment: Acute glucose-lowering and insulin-releasing effects in lean mice; format: in vivo, mouse; conditions: 25 nmol/kg i.p. with glucose 18 mmol/kg, non-fasted lean mice
Protocol: Specific information on acute feeding, glucose homeostasis and insulin-secretory studies is given in ESM Methods. To assess the impact of GIP and neurotensin receptor activation on (DAla^2)GIP/xenin-8-Gln-induced glucose-lowering and insulin-secretory actions in mice, (DAla^2)GIP/xenin-8-Gln was administered by i.p. injection (25 nmol/kg body weight) in combination with glucose (18 mmol/kg) in the absence and presence of GIP(6-30)Cex-K^40[Pal] and SR142948A (both at 25 nmol/kg), and glucose and insulin were measured as described above. In a final series of experiments, test peptides (25 nmol/kg) or saline vehicle (0.9% wt/vol. NaCl) were injected 4 h before a glucose load (18 mmol/kg) in non-fasted mice and blood glucose and plasma insulin measured as above. […]
(§1) Animals Acute animal studies were conducted in male NIH Swiss mice (12-14 weeks old, Harlan Ltd, UK) maintained on a standard rodent maintenance diet (10% fat, 30% protein and 60% carbohydrate, Trouw Nutrition, UK). Prior to commencement of longer term studies, all animals, except lean controls that continued on rodent maintenance diet, were maintained on a high-fat diet (45% fat, 35% carbohydrate and 20% protein, Special Diet Services, UK) for 12 weeks. This diet […]
(§2) individually in an air-conditioned room at 22 ± 2 °C with a 12 h light:12 h dark cycle and had free access to food and water. Animal experiments were carried out in accordance with the UK Animals (Scientific Procedures) Act 1986.
(§3) Acute in vivo effects in lean mice For food intake studies, fasted (18 h) mice were given intraperitoneal (i.p) injections of peptides at a dose of 25, 100 or 250 nmol/kg bw. Mice were then allowed free access to normal chow for 180 mins and cumulative food intake measured. For glucose homeostasis and […]

[3] = test system: high-fat-fed mice; experiment: Subchronic 21 day twice-daily treatment: energy intake, body weight, body composition, non-fasted glucose and insulin; format: in vivo, mouse; conditions: 25 nmol/kg i.p. twice daily
Protocol: (§4) Twice-daily (09:30 and 17:30 hours) i.p. injections of saline vehicle, (DAla^2)GIP or (DAla^2)GIP/xenin-8-Gln hybrid (both at 25 nmol/kg) were administered for 21 days in high-fat-fed mice. Energy intake and body weight were monitored daily and non-fasting blood glucose and plasma insulin concentrations were assessed at 3 day intervals. On day 21, a non-fasted 24 h glucose profile was conducted. At the end of the treatment period, i.p. glucose tolerance (18 mmol/kg), biological response to GIP (18 mmol/kg glucose in combination with native GIP [25 nmol/kg], i.p.) and insulin sensitivity (15 U/kg; i.p.) tests were performed. Terminal analysis included measurement of total body fat and lean mass by dual-energy X-ray absorptiometry (DEXA) scanning (Piximus Densitometer; Inside Outside Sales, Fitchburg, WI, USA) and extraction of pancreatic tissue for analysis as detailed below.
Blood samples were collected from the cut tip on the tail vein of conscious mice into chilled fluoride/heparin glucose micro-centrifuge tubes (Sarstedt, Numbrecht, Germany). Blood glucose was measured directly using a hand-held Ascencia Contour blood glucose meter (Bayer Healthcare, Newbury, UK). Plasma and pancreatic insulin was assayed by a modified dextran-coated charcoal radioimmunoassay.
In vitro insulin release studies Cells were seeded at a density of 150,000 cells/well in 24-well plates (Nunc, Roskilde, Denmark) and allowed to attach overnight at 37 °C. Culture medium was removed and cells were pre-incubated in Krebs–Ringer bicarbonate buffer (containing 0.5% (w/v) BSA, pH 7.4) supplemented with 1.1 mmol/l glucose for 40 min at 37 °C. Following the pre-incubation, experiments (n=8) were performed in presence of glucose (5.6 or 16.7 mmol/l) with a […]
incubations, aliquots of assay buffer were collected from each well and stored at -20 °C prior to […]
as §1, §2, §3

[4] = test system: high-fat-fed mice; experiment: Glucose tolerance test after 21 day treatment; format: in vivo, mouse; conditions: AUC 0–105 min after i.p. glucose 18 mmol/kg; 25 nmol/kg twice daily for 21 days; 18 h fasted high-fat-fed mice; mean ± SEM, 6–8 mice
Protocol: as §4

[5] = test system: high-fat-fed mice; experiment: Pancreatic insulin content and islet histology after 21 day treatment; format: in vivo, mouse; conditions: 21 days at 25 nmol/kg twice daily i.p.
Protocol: Pancreas tissue was excised, divided longitudinally and either snap frozen for extraction of insulin using acid ethanol (5 ml/g), as described previously, or processed for immunohistochemical examination. Immunohistochemistry was performed as described previously. For specific details, please see ESM Methods. […]
insulin secretory studies, blood glucose and plasma insulin were measured immediately prior to and 15, 30, 60 and 105 min after i.p. administration of glucose alone (18 mmol/kg bw) or in combination with test peptides (each at 25 nmol/kg bw) in non-fasted mice.
Immunohistochemistry Tissue sections were deparaffinised, rehydrated and probed with primary antibodies: mouse anti-insulin antibody (1:500; Abcam, ab6995), guinea-pig anti-glucagon antibody (PCA2/4, 1:400; raised in-house) or rabbit anti-Ki67 (1:200; Abcam ab16667), as appropriate. We confirmed the specificity of all antibodies in blocking experiments using the native peptide. Sections were then incubated with secondary antibody, Alexa Fluor 488 goat anti-guinea pig IgG (1:400), Alexa Fluor 594 goat anti-mouse IgG (1:400) or Alexa Fluor 594 goat anti-rabbit IgG (1:400); respectively. TUNEL staining was performed using fluorescein in situ cell detection kit (Roche Diagnostics, Germany). The slides were viewed under a FITC (488 nm) or TRITC filter (594 nm) using a fluorescent microscope (Olympus system microscope, model BX51) and photographed using a DP70 camera adapter system. Islet parameters were analysed using CellF image analysis software (Olympus Soft Imaging Solutions, GmbH).

[6] = 21 days, high-fat-fed mice, vs high-fat-fed controls

Chain of purified porcine DPP-4 (P22411 whole entry): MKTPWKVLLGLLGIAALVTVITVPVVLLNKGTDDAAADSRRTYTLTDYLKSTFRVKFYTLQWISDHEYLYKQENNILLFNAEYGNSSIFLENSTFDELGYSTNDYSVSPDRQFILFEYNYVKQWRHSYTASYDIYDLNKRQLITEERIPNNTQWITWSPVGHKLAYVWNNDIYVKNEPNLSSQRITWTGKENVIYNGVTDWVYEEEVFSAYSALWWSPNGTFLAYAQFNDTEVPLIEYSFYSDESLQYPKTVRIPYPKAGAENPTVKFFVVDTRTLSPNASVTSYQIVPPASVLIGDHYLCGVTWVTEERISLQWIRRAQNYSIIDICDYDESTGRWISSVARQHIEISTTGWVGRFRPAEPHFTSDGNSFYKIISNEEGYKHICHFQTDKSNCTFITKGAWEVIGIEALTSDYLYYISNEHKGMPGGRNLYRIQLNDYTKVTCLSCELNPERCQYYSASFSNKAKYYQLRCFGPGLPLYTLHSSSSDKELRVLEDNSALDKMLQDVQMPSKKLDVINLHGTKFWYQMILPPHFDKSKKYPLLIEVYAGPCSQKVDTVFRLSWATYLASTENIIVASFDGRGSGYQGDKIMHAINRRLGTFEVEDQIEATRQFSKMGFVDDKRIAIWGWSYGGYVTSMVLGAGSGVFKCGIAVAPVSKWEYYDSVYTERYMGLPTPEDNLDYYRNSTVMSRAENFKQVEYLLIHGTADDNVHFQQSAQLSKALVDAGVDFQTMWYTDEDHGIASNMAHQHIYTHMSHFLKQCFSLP

CC[C@H](C)[C@H](NC(=O)[C@H](CO)NC(=O)[C@H](Cc1ccc(O)cc1)NC(=O)[C@H](CC(=O)O)NC(=O)[C@H](CO)NC(=O)[C@@H](NC(=O)[C@H](Cc1ccccc1)NC(=O)[C@@H](NC(=O)CNC(=O)[C@H](CCC(=O)O)NC(=O)[C@@H](C)NC(=O)[C@@H](N)Cc1ccc(O)cc1)[C@@H](C)O)[C@@H](C)CC)C(=O)N[C@@H](C)C(=O)N[C@@H](CCSC)C(=O)N[C@@H](CC(=O)O)C(=O)N[C@@H](CCCCN)C(=O)N[C@H](C(=O)N[C@@H](Cc1c[nH]cn1)C(=O)N[C@@H](CCC(N)=O)C(=O)N[C@@H](CCC(N)=O)C(=O)N[C@@H](CC(=O)O)C(=O)N[C@@H](Cc1ccccc1)C(=O)N[C@H](C(=O)N[C@@H](CC(N)=O)C(=O)N[C@@H](Cc1c[nH]c2ccccc12)C(=O)N[C@@H](CC(C)C)C(=O)N[C@@H](CC(C)C)C(=O)N[C@@H](C)C(=O)N[C@@H](CCC(N)=O)C(=O)N[C@@H](CCCCN)C(=O)NCC(=O)N[C@@H](CCCCN)C(=O)N[C@@H](CCCCN)C(=O)N[C@@H](CC(N)=O)C(=O)N[C@@H](CC(=O)O)C(=O)N[C@@H](Cc1c[nH]c2ccccc12)C(=O)N[C@@H](CCCCN)C(=O)N[C@@H](Cc1c[nH]cn1)C(=O)N[C@@H](CC(N)=O)C(=O)N[C@H](C(=O)N[C@H](C(=O)N[C@@H](CCC(N)=O)C(=O)O)[C@@H](C)O)[C@@H](C)CC)C(C)C)[C@@H](C)CC [(DAla^2)GIP]
Stability when incubated in the presence of DPP-4 [1]: remained fully intact
Blood glucose ([2]; 15 min post injection): significant (p < 0.05) reduction in blood glucose levels
Blood glucose ([2]; 30 min post injection, vs glucose alone): significantly (p < 0.05) lowered blood glucose values
Overall AUC blood glucose ([2]; vs glucose alone): significantly (p < 0.05) decreased overall AUC blood glucose values
Body weight [3, 6]: no significant effect
Cumulative energy intake [3, 6]: no significant effect
Non-fasting 24 h blood glucose profile ([3]; day 21, high-fat-fed mice): also reduced, but not to the same extent
Total body fat and lean mass (DEXA) ([3]; day 21, high-fat-fed mice): unaltered
Non-fasted plasma insulin ([3]; day 21, high-fat-fed mice, vs high-fat-fed controls): reduced plasma insulin levels compared with high-fat-fed controls on day 21 but the difference did not reach statistical significance
Non-fasting blood glucose compared with lean controls ([3]; high-fat-fed mice, from day 12 onwards): not significantly different from lean controls
Glucose tolerance test: Blood glucose AUC [4]: 1714.7 ± 138.6 mmol·min/L
Glucose tolerance test: Plasma insulin AUC [4]: 11,253 ± 1590 pmol/l × min
Beta cell area [5]: no significant effect on overall pancreatic islet area or beta cell area
Pancreatic islet area [5]: no significant effect on overall pancreatic islet area or beta cell area
Number of islets per mm^2 ([5]; vs all other groups): significantly (p < 0.05 to p < 0.01) augmented
Alpha cell area ([5]; vs high-fat-fed controls): decreased (p < 0.001) alpha cell area
Frequency of beta cell apoptosis (TUNEL) ([5]; vs high-fat-fed controls): significantly (p < 0.01) decreased

Source: article PMC6518372, “An enzymatically stable GIP/xenin hybrid peptide restores GIP sensitivity, enhances beta cell function and improves glucose homeostasis in high-fat-fed mice” (Diabetologia, 2016)
